Laboratory results taken from patent publication US12516053B2, “Bcl-2 inhibitors” (BEIGENE, LTD., priority 2019, dated 2026).

Experiments:
[1] = target: Recombinant human Bcl-2 protein (Homo sapiens, UniProt P10415); test: Bcl-2 TR-FRET assay; assay type: binding; conditions: TR-FRET, 0.05 nM Bcl-2, FITC labeled Bak peptide 0.5 nM; read-out: Biochemical assay (IC50, nM) Bcl-2 WT
Experimental: Compounds disclosed herein were tested for blocking of Bcl-2 protein with its ligand in an assay based on Time-Resolved Fluorescence Resonance Energy Transfer (TR-FRET) methodology. Recombinant human 0.05 nM Bcl-2 protein was pre-incubated with a serial dilution of compounds disclosed herein (top final concentration is 1 uM or 0.1 uM or 0.02 uM or 0.01 uM, 10 points) at room temperature for 0.5 hour in an assay buffer containing 20 mM potassium phosphate buffer, pH 7.5, 50 mM NaCl, 1 mM EDTA, 0.05% Tween-20, 0.01% BSA. […] The inhibition percentage of Bcl-2 interaction with its ligand in presence of increasing concentrations of compounds was calculated based on the TR-FRET signals. The IC50 for each compound was derived from fitting the data to the four-parameter logistic equation by Graphpad Prism software or Dotmatics.

[2] = target: recombinant human Bcl-2-G101V protein (Homo sapiens, UniProt P10415, G101V); test: Bcl-2-G101V TR-FRET assay; assay type: binding; conditions: TR-FRET, 0.1 nM Bcl-2-G101V, FITC labeled Bak peptide 5 nM; read-out: Biochemical assay (IC50, nM) Bcl-2 G101V
Description: The IC50 for each compound was derived from fitting the data to the four-parameter logistic equation by Graphpad Prism software or Dotmatics.

[3] = tested on: RS4;11 (BCL-2 dependent acute lymphoblastic leukemia cell line); test: RS4;11 cell proliferation assay; assay type: cell-based; conditions: Homo sapiens, RS4-11, 48 hrs treatment, CellTiter-GLO, read-out: Cellular proliferation assay (IC50, nM) RS4
Experimental: RS4;11 Cell Proliferation Assay:
Each compound was serially diluted with 1 μM as the maximum concentration. To test the apoptotic effect of the compounds, the cells were seeded at 50,000 in 180 μl per well in 96-well plates and treated with 10-point dilution series of each compound for 48 hrs at 37° C. Cell viability was assessed after the treatment using CellTiter-GLO luminescent assay (Promega) according to the manufacturer's recommendations. Briefly, 30 μl of CellTiter-GLO reagent was added into 200 μl of cell culture, Mixture was agitated on an orbital shaker for 5 mins to ensure cell lysis followed by 7 mins incubation at room temperature to allow development and stabilization of luminescent signals, which corresponded to quantity of ATP and thus the quantity of metabolically active cells. Luminescent signals were measured using PHERAstar FS reader (BMG). Mean IC50 values for cell viability were determined with GraphPad Prism software.

[4] = tested on: Molt-4 (Bcl-xL-dependent ALL cell line); test: Molt-4 cell proliferation assay; assay type: cell-based; conditions: Homo sapiens, MOLT-4; CellTiter-GLO; read-out: Cellular proliferation assay (IC50, nM) Molt-4
Description: Molt-4 Cell Proliferation Assay:
Each compound was serially diluted with 10 1M as the maximum concentration. The anti-proliferative IC50s of these compounds were similarly determined as a percentage of viable cells upon treatment compared to the untreated control using CellTiter-GLO luminescent assay.

[5] = target: BA/F3-BCL-2 cells (Homo sapiens, UniProt P10415); test: BA/F3 cell proliferation assay, BCL-2 wild type; assay type: cell-based, Murine; conditions: 24 hrs treatment, 3% FBS, CellTiter-Glo, geometric mean of 3 experiments; read-out: Cellular proliferation assay (IC50, nM) Bcl-2 WT; BaF3 cell
Experimental: (§1) BA/F3 cell Proliferation Assay:
(§2) The cells were treated with a 10-point dilution series of compounds for 24 hrs. After the compound treatment, 30 μl of CellTiter-Glo reagent was added in each well. The effects on proliferation were determined using Cell TiterGlo reagent (Promega) according to the manufacturer's instructions. Luminescent signals were measured using PHERAstar FS plate reader (BMG Labtech). ICS50 values for cell viability were determined with GraphPad Prism software and were the geometric mean of 3 independent experiments.

[6] = target: BA/F3-BCL-2 G101V cells (Homo sapiens, UniProt P10415, G101V, cells depend on it); test: BA/F3 cell proliferation assay, Bcl-2 G101V; assay type: cell-based, Murine; conditions: 24 hrs treatment, 3% FBS, CellTiter-Glo, geometric mean of 3 experiments; read-out: Cellular proliferation assay (IC50, nM) Bcl-2 G101V; BaF3 cell
Experimental: as §1, §2

IC50 [1] [nM] | IC50 [2] [nM] | IC50 [3] [nM] | IC50 [4] [nM] | IC50 [5] [nM] | GI50 [6] [nM] | Structure (SMILES)
0.04 | 1.9 | 1.7 | 6730 | 1 | 15.5 | CC(C)c1ccccc1[C@@H]1CCCN1C1CC2(CCN(c3ccc(C(=O)NS(=O)(=O)c4ccc(NC[C@H]5CC[C@](C)(O)CC5)c([N+](=O)[O-])c4)c(N4CCCOc5nc6[nH]ccc6cc54)c3)CC2)C1 [Example B1]
0.05 | 1.8 | 1.7 | 5560 | 0.82 | 7.8 | CC(C)c1ccccc1[C@@H]1CCCN1C1CC2(CCN(c3ccc(C(=O)NS(=O)(=O)c4ccc(NCC5(F)CCOCC5)c([N+](=O)[O-])c4)c(N4CCCOc5nc6[nH]ccc6cc54)c3)CC2)C1 [Example B2, (S)-2-(3,4-dihydro-2H-pyrrolo[3′,2′:5,6]pyrido[2,3-b][1,4]oxazepin-1(7H)-yl)-N-((4-(((4-fluorotetrahydro-2H-pyran-4-yl)methyl)amino)-3-nitrophenyl)sulfonyl)-4-(2-(2-(2-isopropylphenyl)pyrrolidin 1-yl)-7-azaspiro[3,5]nonan-7-yl)benzamide]
0.094 | 2.4 | 5.5 | > 10000 | 2.8 | 39.1 | CC(C)c1ccccc1[C@@H]1CCCN1C1CC2(C1)CN(c1ccc(C(=O)NS(=O)(=O)c3ccc(NC[C@H]4CC[C@](C)(O)CC4)c([N+](=O)[O-])c3)c(N3CCCOc4nc5[nH]ccc5cc43)c1)C2 [Example B13, 2-(3,4-dihydro-2H-pyrrolo[3′,2′:5,6]pyrido[2,3-b][1,4]oxazepin-1(7H)-yl)-N-((4-((((1r,4r)-4-hydroxy-4-methylcyclohexyl)methyl)amino)-3-nitrophenyl)sulfonyl)-4-(6-((S)-2-(2-isopropylphenyl)pyrrolidin-1-yl)-2-azaspiro[3,3]heptan-2-yl)benzamide]
0.11 | 3.1 | 4.8 | > 10000 | 2.4 | 26.5 | CC(C)c1ccccc1[C@@H]1CCCN1C1CC2(C1)CN(c1ccc(C(=O)NS(=O)(=O)c3ccc(NCC4(F)CCOCC4)c([N+](=O)[O-])c3)c(N3CCCOc4nc5[nH]ccc5cc43)c1)C2 [Example B14, (S)-2-(3,4-dihydro-2H-pyrrolo[3′,2′:5,6]pyrido[2,3-b][1,4]oxazepin-1(7H)-yl)-N-((4-(((4-fluorotetrahydro-2H-pyran-4-yl)methyl)amino)-3-nitrophenyl)sulfonyl)-4-(6-(2-(2-isopropylphenyl)pyrrolidin-1-yl)-2-azaspiro[3.3]heptan-2-yl)benzamide]
